Drawing on patent US20230295096A1, “PYRAZOLE CARBOXAMIDE COMPOUNDS FOR TREATMENT OF HBV” (ASSEMBLY BIOSCIENCES, INC., priority 2020, published 2023), this text covers EC50 for 34 molecules.

SMILES strings stand for the structures. A value given as a limit tells only on which side of the number the result lay.

The test system of one experiment is HBV. Kind of experiment: Viral load production from HepAD38 cells, qPCR of the HBV core sequence in supernatant. The following applies: HepAD38 cells, 5 days, HBV DNA in supernatant by qPCR; Table 1 ranges; read-out: Activity (viral load lowering EC50). Type of experiment: cell-based. In a few lines:
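EC50 and CC50 come from four-parameter logistic fits of supernatant HBV core DNA (TaqMan qPCR, DNA standards, compared with DMSO wells) and of CellTiter-Glo luminescence.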
`Cn1nc(C2CC3CC(O)(CNc4cc(N)ncn4)CC3C2)c(C(=O)Nc2ccc(F)c(Cl)c2)c1N` (single isomer, unassigned) [Example 205B]: the EC50 lay in the range of 50 to 500 nM.

The experiment is the same for the next values; noted with them: HepAD38 cells, 5 days, HBV DNA in supernatant by qPCR; Table 2 ranges; read-out: VL HepAD38 EC50 range.
As to `Cn1nc(C2CC3CC(c4ccccc4)C(O)C3C2)c(C(=O)Nc2ccc(F)c(Cl)c2)c1N` (single isomer, unassigned) [Example 144, 5-Amino-N-(3-chloro-4-fluorophenyl)-3-(4-hydroxy-5-phenyloctahydropentalen-2-yl)-1-methyl-1H-pyrazole-4-carboxamide], the EC50 is less than 100 nM.

The experiment is the same for the next values; noted with them: Hepatitis B virus, HePAD38, 120 h, HepAD38 cells, 5 days, HBV DNA in supernatant by qPCR; Table 1 ranges; read-out: Activity (viral load lowering EC50).
In the case of `Cc1ccccc1C1(O)CC2CC(c3nn(C)c(N)c3C(=O)Nc3ccc(F)c(Cl)c3)CC2C1` (stereo not shown) [Example 8, 5-Amino-N-(3-chloro-4-fluorophenyl)-3-(5-hydroxy-5-(o-tolyl)octahydropentalen-2-yl)-1-methyl-1H-pyrazole-4-carboxamide], the EC50 was less than 10 nM.
With `Cn1nc(C2CC3CC(O)(c4c(Cl)c(N)nn4C)CC3C2)c(C(=O)Nc2ccc(F)c(Cl)c2)c1N` (stereo not shown) [Example 221], the EC50 was less than 10 nM.
Turning to `C[C@@H](NC1CC2CC(c3nn(C)c(N)c3C(=O)Nc3ccc(F)c(Cl)c3)CC2C1)C(F)(F)F` (stereo partly drawn) [Example 99, 5-Amino-N-(3-chloro-4-fluorophenyl)-1-methyl-3-(5-(((R)-1,1,1-trifluoropropan-2-yl)amino)octahydropentalen-2-yl)-1H-pyrazole-4-carboxamide], the EC50 was in the range of 10 to 50 nM.
`Cc1ccc([S+]([O-])C(F)(F)C2(O)CC3CC(c4nn(C)c(N)c4C(=O)Nc4ccc(F)c(Cl)c4)CC3C2)cc1` (stereo not shown) [Example 36, 5-Amino-N-(3-chloro-4-fluorophenyl)-3-(5-(difluoro(p-tolylsulfinyl)methyl)-5-hydroxyoctahydropentalen-2-yl)-1-methyl-1H-pyrazole-4-carboxamide]: the EC50 is 10 to 50 nM.
As for `COCCOCCOCCOCCOCCOCCOCCOCCOC(=O)OCn1cc(C2(O)CC3CC(c4nn(C)c(N)c4C(=O)Nc4ccc(F)c(Cl)c4)CC3C2)c(C(F)(F)F)n1` [Example 158, (4-((2r,3aR,5 s,6aS)-5-(5-amino-4-((3-chloro-4-fluorophenyl)carbamoyl)-1-methyl-1H-pyrazol-3-yl)-2-hydroxyoctahydropentalen-2-yl)-3-(trifluoromethyl)-1H-pyrazol-1-yl)methyl (2,5,8,11,14,17,20,23-octaoxapentacosan-25-yl) carbonate], the EC50 is less than 10 nM.
As to `Cn1nc(C2CC3CC(CNC(=O)C4CCC4)CC3C2)c(C(=O)Nc2ccc(F)c(Cl)c2)c1N` (stereo not shown) [Example 46, 5-Amino-N-(3-chloro-4-fluorophenyl)-3-(5-(cyclobutanecarboxamidomethyl)octahydropentalen-2-yl)-1-methyl-1H-pyrazole-4-carboxamide], the EC50 is less than 10 nM.
With `C=C(n1cccn1)C1(O)CC2CC(c3nn(C)c(N)c3C(=O)Nc3ccc(F)c(Cl)c3)CC2C1` (stereo not shown) [Example 198], the EC50 was less than 10 nM.
On to `Cn1nc(C2CC3CC(O)(c4c[nH]cn4)CC3C2)c(C(=O)Nc2ccc(F)c(Cl)c2)c1N` (stereo not shown) [Example 27, 5-Amino-N-(3-chloro-4-fluorophenyl)-3-(5-hydroxy-5-(1H-imidazol-4-yl)octahydropentalen-2-yl)-1-methyl-1H-pyrazole-4-carboxamide], for which the EC50 lay within 10 to 50 nM.
Regarding `Cn1nc(C2CC3CC(F)(CC(F)F)CC3C2)c(C(=O)Nc2ccc(F)c(Cl)c2)c1N` (stereo not shown) [Example 29, 5-Amino-N-(3-chloro-4-fluorophenyl)-3-(5-(2,2-difluoroethyl)-5-fluorooctahydropentalen-2-yl)-1-methyl-1H-pyrazole-4-carboxamide], the EC50 lay within 10 to 50 nM.
On the same count and under the same terms, as for `CCCS(=O)(=O)NCC1CC2CC(c3nn(C)c(N)c3C(=O)Nc3ccc(F)c(Cl)c3)CC2C1` (stereo not shown) [Example 89, 5-Amino-N-(3-chloro-4-fluorophenyl)-1-methyl-3-(5-(propylsulfonamidomethyl)octahydropentalen-2-yl)-1H-pyrazole-4-carboxamide], the figure is less than 10 nM; as for `Cn1nc(C2CC3CC(O)(c4ccncc4)CC3C2)c(C(=O)Nc2ccc(F)c(Cl)c2)c1N` (stereo not shown) [Example 16, 5-Amino-N-(3-chloro-4-fluorophenyl)-3-(5-hydroxy-5-(pyridin-4-yl)octahydropentalen-2-yl)-1-methyl-1H-pyrazole-4-carboxamide], less than 10 nM.
Turning to `Cn1nc(C2CC3CC(CNC(=O)C4CC4)CC3C2)c(C(=O)Nc2ccc(F)c(Cl)c2)c1N` (single isomer, unassigned) [Example 40, 5-Amino-N-(3-chloro-4-fluorophenyl)-3-(5-(cyclopropanecarboxamidomethyl)octahydropentalen-2-yl)-1-methyl-1H-pyrazole-4-carboxamide], the EC50 is less than 10 nM.
Regarding `Cn1nc(C2CC3CC(O)(c4cn[nH]c4)CC3C2)c(C(=O)Nc2ccc(F)c(Cl)c2)c1N` (stereo not shown) [Example 28, 5-Amino-N-(3-chloro-4-fluorophenyl)-3-(5-hydroxy-5-(1H-pyrazol-4-yl)octahydropentalen-2-yl)-1-methyl-1H-pyrazole-4-carboxamide], the EC50 lay in the range of 10 to 50 nM.
`Cn1nc(C2CC3CN(C(=O)Nc4cccc(F)c4)CC3C2)c(C(=O)Nc2ccc(F)c(Cl)c2)c1N` (stereo not shown) [Example 122, 5-(5-Amino-4-((3-chloro-4-fluorophenyl)carbamoyl)-1-methyl-1H-pyrazol-3-yl)-N-(3-fluorophenyl)hexahydrocyclopenta[c]pyrrole-2(1H)-carboxamide]: the 50% effective concentration (EC50) lay within 10 to 50 nM.
With `Cn1nc(C2CC3CC(N4CC=C(C(N)=O)CC4)CC3C2)c(C(=O)Nc2ccc(F)c(Cl)c2)c1N` (stereo not shown) [Example 189], the EC50 is 10 to 50 nM.
Same read-out and setting: as for `Cn1nc(C2CC3CC(O)(C(F)(F)S(=O)(=O)c4ccccc4)CC3C2)c(C(=O)Nc2ccc(F)c(Cl)c2)c1N` (stereo not shown) [Example 33, 5-Amino-N-(3-chloro-4-fluorophenyl)-3-(5-(difluoro(phenylsulfonyl)methyl)-5-hydroxyoctahydropentalen-2-yl)-1-methyl-1H-pyrazole-4-carboxamide], the figure is 10 to 50 nM; as for `Cc1cc(C2(O)CC3CC(c4nn(C)c(N)c4C(=O)Nc4ccc(F)c(Cl)c4)CC3C2)n(C)n1` (stereo not shown) [Example 217], less than 10 nM.
`Cn1cc(Br)c(C2(O)CC3CC(c4nn(C)c(N)c4C(=O)Nc4ccc(F)c(Cl)c4)CC3C2)n1` (stereo not shown) [Example 150]: the EC50 was less than 10 nM.
In the case of `Cn1nc([N+](=O)[O-])cc1C1(O)CC2CC(c3nn(C)c(N)c3C(=O)Nc3ccc(F)c(Cl)c3)CC2C1` [Compd. 4-2, 5-amino-N-(3-chloro-4-fluorophenyl)-3-((2 s,3aR,5r,6aS)-5-hydroxy-5-(1-methyl-3-nitro-1H-pyrazol-5-yl)octahydropentalen-2-yl)-1-methyl-1H-pyrazole-4-carboxamide], the EC50 is less than 10 nM.
Take `Cn1nc(C2CC3CN(c4c(Cl)cncc4Cl)CC3C2)c(C(=O)Nc2ccc(F)c(Cl)c2)c1N` (stereo not shown) [Example 136, 5-Amino-N-(3-chloro-4-fluorophenyl)-3-(2-(3,5-dichloropyridin-4-yl)octahydrocyclopenta[c]pyrrol-5-yl)-1-methyl-1H-pyrazole-4-carboxamide]: the EC50 lay in the range of 50 to 500 nM.
Take `Cn1ccc(C2(O)CC3CC(c4nn(C)c(N)c4C(=O)Nc4ccc(F)c(Cl)c4)CC3C2)n1` (stereo not shown) [Example 153]: the 50% effective concentration (EC50) is less than 10 nM.
Same read-out and setting: as for `CCn1nccc1C1(O)CC2CC(c3nn(C)c(N)c3C(=O)Nc3ccc(F)c(Cl)c3)CC2C1` (stereo not shown) [Example 196], the figure is less than 10 nM.
On to `Cn1nc(C2CC3CC(N4CC=C(C(=O)O)CC4)CC3C2)c(C(=O)Nc2ccc(F)c(Cl)c2)c1N` (stereo not shown) [Example 188], for which the EC50 is more than 500 nM.
Consider `Cc1cc(C2(O)CC3CC(c4nn(C)c(N)c4C(=O)Nc4ccc(F)c(Cl)c4)CC3C2)on1` (stereo not shown) [Example 180], for which the EC50 was less than 10 nM.
The same measure, in the same setting: as for `Cn1nc(C2CC3CC(CNC(=O)CCC(C)(C)C)CC3C2)c(C(=O)Nc2ccc(F)c(Cl)c2)c1N` (stereo not shown) [Example 56, 5-Amino-N-(3-chloro-4-fluorophenyl)-3-(5-((4,4-dimethylpentanamido)methyl)octahydropentalen-2-yl)-1-methyl-1H-pyrazole-4-carboxamide], the figure is less than 10 nM; as for `Cc1ccc(C2(O)CC3CC(c4nn(C)c(N)c4C(=O)Nc4ccc(F)c(Cl)c4)CC3C2)cc1` (stereo not shown) [Example 6, 5-Amino-N-(3-chloro-4-fluorophenyl)-3-(5-hydroxy-5-(p-tolyl)octahydropentalen-2-yl)-1-methyl-1H-pyrazole-4-carboxamide], less than 10 nM; as for `Cc1ccc(C2(O)CC3CC(c4nn(C)c(N)c4C(=O)Nc4ccc(F)c(Cl)c4)CC3C2)nc1` (stereo not shown) [Example 17, 5-Amino-N-(3-chloro-4-fluorophenyl)-3-(5-hydroxy-5-(5-methylpyridin-2-yl)octahydropentalen-2-yl)-1-methyl-1H-pyrazole-4-carboxamide], less than 10 nM.
For the molecule `Cn1nnnc1C1(O)CC2CC(c3nn(C)c(N)c3C(=O)Nc3ccc(F)c(Cl)c3)CC2C1` (stereo not shown) [Example 172], the EC50 is 10 to 50 nM.
For `Cn1nc(C2CC3CC(O)(c4c(F)cncc4F)CC3C2)c(C(=O)Nc2ccc(F)c(Cl)c2)c1N` (stereo not shown) [Example 174], the EC50 was less than 10 nM.
Regarding `Cn1nc(C2CC3CN(C(=O)OCc4cccc(F)c4)CC3C2)c(C(=O)Nc2ccc(F)c(Cl)c2)c1N` (stereo not shown) [Example 130, 3-fluorobenzyl 5-(5-amino-4-((3-chloro-4-fluorophenyl)carbamoyl)-1-methyl-1H-pyrazol-3-yl)hexahydrocyclopenta[c]pyrrole-2(1H)-carboxylate], the EC50 was in the range of 10 to 50 nM.
Consider `Cn1nc(C2CC3CC(O)(c4cn(COC(=O)CCC(=O)OCc5ccccc5)nc4C(F)(F)F)CC3C2)c(C(=O)Nc2ccc(F)c(Cl)c2)c1N` (stereo not shown) [Example 230], for which the EC50 is less than 10 nM.
Consider `Cn1nc(C2CC3CC4(CC3C2)NC(=O)NC4=O)c(C(=O)Nc2ccc(F)c(Cl)c2)c1N` (stereo not shown) [Example 116, 5-Amino-N-(3-chloro-4-fluorophenyl)-3-(2,5-dioxohexahydro-1′H-spiro[imidazolidine-4,2′-pentalen]-5′-yl)-1-methyl-1H-pyrazole-4-carboxamide], for which the EC50 fell in the range of 50 to 500 nM.
